This is an account of results in US20250179078A1, “INHIBITORS OF NLRP3” (PTC THERAPEUTICS, INC., priority 2022, published 2025).

This assay addresses T1, NLRP3 (Homo sapiens, UniProt Q96P20).
T1 construct: host or cells: THP-1 cells differentiated with PMA
Description: IL-1β Secretion Assay (NLRP3-dependent IL1β secretion in THP1 cells). It counts as cell-based. The settings on record: PMA-differentiated THP-1 cells; compounds incubated 20 h; 2.5 μM Nigericin 3 h; HTRF IL-1β readout; read-out: IC50 IL-1β Inhibition. A digest of the protocol:
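THP-1 cells differentiated with 100 ng/mL PMA for 24 h, then given compound (7-point 3-fold series, 1:200 from DMSO) for 20 h in RPMI+5% FBS. NLRP3 activated with 2.5 μM nigericin for 3 h; secreted IL-1β measured by HTRF; IC50 from logistic fit of % inhibition.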
On the technique in general: TR-FRET usually uses a lanthanide donor and a delayed reading to cut background.

T1 sequence (Q96P20 whole entry): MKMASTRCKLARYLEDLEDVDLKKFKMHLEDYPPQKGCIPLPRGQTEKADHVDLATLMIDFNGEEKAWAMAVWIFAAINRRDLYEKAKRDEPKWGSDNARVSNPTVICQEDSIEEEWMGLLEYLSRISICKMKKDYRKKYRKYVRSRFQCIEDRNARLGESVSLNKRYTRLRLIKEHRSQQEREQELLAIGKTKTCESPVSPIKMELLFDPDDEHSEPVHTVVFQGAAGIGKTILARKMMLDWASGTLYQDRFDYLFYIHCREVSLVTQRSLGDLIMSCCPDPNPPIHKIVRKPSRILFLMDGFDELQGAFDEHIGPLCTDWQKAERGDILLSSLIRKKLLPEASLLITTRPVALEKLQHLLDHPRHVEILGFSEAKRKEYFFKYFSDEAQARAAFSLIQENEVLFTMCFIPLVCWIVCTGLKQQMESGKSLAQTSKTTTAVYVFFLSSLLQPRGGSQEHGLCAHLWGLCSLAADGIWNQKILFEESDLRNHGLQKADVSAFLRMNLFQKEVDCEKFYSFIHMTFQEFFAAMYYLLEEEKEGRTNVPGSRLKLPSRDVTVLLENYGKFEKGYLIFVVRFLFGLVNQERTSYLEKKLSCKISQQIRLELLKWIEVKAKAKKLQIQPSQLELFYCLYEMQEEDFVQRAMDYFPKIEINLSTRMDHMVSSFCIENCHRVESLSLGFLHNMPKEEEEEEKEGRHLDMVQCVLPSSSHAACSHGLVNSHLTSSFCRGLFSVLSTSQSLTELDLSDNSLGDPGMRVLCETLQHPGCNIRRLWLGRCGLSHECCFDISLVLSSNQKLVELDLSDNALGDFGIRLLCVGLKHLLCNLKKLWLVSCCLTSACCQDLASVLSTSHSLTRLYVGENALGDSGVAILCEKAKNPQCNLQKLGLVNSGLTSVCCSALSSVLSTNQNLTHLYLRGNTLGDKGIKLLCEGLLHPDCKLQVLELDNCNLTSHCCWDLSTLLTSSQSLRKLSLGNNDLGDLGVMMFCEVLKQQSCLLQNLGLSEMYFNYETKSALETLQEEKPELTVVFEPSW

`Cc1ccc(-c2nnc(N[C@H]3C[C@@](C)(O)C3)n3cncc23)c(OC(F)(F)F)c1` [Compound 332, (1s,3s)-1-methyl-3-({1-[4-methyl-2-(trifluoromethoxy)phenyl]imidazo[1,5-d][1,2,4]triazin-4-yl}amino)cyclobutan-1-ol]: the 50% inhibitory concentration (IC50) – broadly, the point on the concentration scale where inhibition reaches its midpoint – lay in the range of 10 to 100 nM.

For `COc1ccc(-c2nnc(NC(C)c3cccnc3)n3cncc23)c(OC(F)(F)F)c1` (stereo not shown) [Compound 232, 1-[4-methoxy-2-(trifluoromethoxy)phenyl]-N-[1-(pyridin-3-yl)ethyl]imidazo[1,5-d][1,2,4]triazin-4-amine], the 50% inhibitory concentration (IC50) lay in the range of 100 to 300 nM.

Consider `COc1ccc(-c2nnc(NC3CC(C(C)(C)O)C3)n3cncc23)c(CC(F)(F)F)c1` (stereo not shown) [Compound 327, 2-[3-({1-[4-methoxy-2-(2,2,2-trifluoroethyl)phenyl]imidazo[1,5-d][1,2,4]triazin-4-yl}amino)cyclobutyl]propan-2-ol], for which the half-maximal inhibitory concentration (IC50) was 10 to 100 nM.

As for `COc1ccc(-c2nnc(N[C@@H]3CCCC[C@H]3O)n3cc(C)cc23)c(OC(F)(F)F)c1` [Compound 163, (1R,2R)-2-({1-[4-methoxy-2-(trifluoromethoxy)phenyl]-7-methylpyrrolo[1,2-d][1,2,4]triazin-4-yl}amino)cyclohexan-1-ol], the IC50 was 10 to 100 nM.

In the case of `COc1ccc(-c2nnc(N[C@@H]3CCCN(C)C3)n3ccc(F)c23)c(OC(F)F)c1` [Compound 55, 1-[2-(difluoromethoxy)-4-methoxyphenyl]-8-fluoro-N-[(3R)-1-methylpiperidin-3-yl]pyrrolo[1,2-d][1,2,4]triazin-4-amine], the IC50 was 10 to 100 nM.

Take `COc1ccc(-c2nnc(N[C@@H]3CCCN(C)C3)n3cncc23)c(OC(F)F)c1` [Compound 216, 1-[2-(difluoromethoxy)-4-methoxyphenyl]-N-[(3R)-1-methylpiperidin-3-yl]imidazo[1,5-d][1,2,4]triazin-4-amine]: the concentration for half-maximal inhibition (IC50) was 1 to 10 nM.

With `COc1ccc(-c2nnc(N[C@@H]3CCC[C@H](O)C3)n3cncc23)c(CC(F)(F)F)c1` [Compound 302, (1S,3R)-3-({1-[4-methoxy-2-(2,2,2-trifluoroethyl)phenyl]imidazo[1,5-d][1,2,4]triazin-4-yl}amino)cyclohexan-1-ol], the IC50 fell in the range of 1 to 10 nM.

Regarding `CN1CCC[C@@H](Nc2nnc(-c3ccc(C(F)(F)F)cc3OC(F)(F)F)c3cccn23)C1` [Compound 140, N-[(3R)-1-methylpiperidin-3-yl]-1-[2-(trifluoromethoxy)-4-(trifluoromethyl)phenyl]pyrrolo[1,2-d][1,2,4]triazin-4-amine], the IC50 was less than 1 nM.

For the compound `OCCN1CCC[C@@H](Nc2nnc(-c3ccc(C(F)(F)F)cc3F)c3cccn23)C1` [Compound 21, 2-[(3R)-3-({1-[2-fluoro-4-(trifluoromethyl)phenyl]pyrrolo[1,2-d][1,2,4]triazin-4-yl}amino)piperidin-1-yl]ethan-1-ol], the IC50 lay in the range of 10 to 100 nM.

As to `COc1ccc(-c2nnc(NC3CCNC3=O)n3nc(C)cc23)c(CC(F)(F)F)c1` (stereo not shown) [Compound 386, 3-({4-[4-methoxy-2-(2,2,2-trifluoroethyl)phenyl]-2-methylpyrazolo[1,5-d][1,2,4]triazin-7-yl}amino)pyrrolidin-2-one], the half-maximal inhibitory concentration (IC50) is 10 to 100 nM.

Regarding `COc1ccc(-c2nnc(NCc3cccc(O)c3)n3cncc23)c(OC(F)(F)F)c1` [Compound 233, 3-[{{1-[4-methoxy-2-(trifluoromethoxy)phenyl]imidazo[1,5-d][1,2,4]triazin-4-yl}amino)methyl]phenol], the IC50 is 1 to 10 nM.

Regarding `COc1ccc(-c2nnc(N[C@@H]3CCCN(C)C3)n3cccc23)c(C)c1` [Compound 26, 1-(4-methoxy-2-methylphenyl)-N-[(3R)-1-methylpiperidin-3-yl]pyrrolo[1,2-d][1,2,4]triazin-4-amine], the IC50 fell in the range of 10 to 100 nM.

`COc1ccc(-c2nnc(N[C@H]3C[C@@](C)(O)C3)n3ccc(F)c23)c(Cl)c1` [Compound 84, (1s,3s)-3-{[1-(2-chloro-4-methoxyphenyl)-8-fluoropyrrolo[1,2-d][1,2,4]triazin-4-yl]amino}-1-methylcyclobutan-1-ol]: the IC50 lay in the range of 10 to 100 nM.

On to `COc1ccc(-c2nnc(Nc3cc[nH]n3)n3cncc23)c(OC(F)F)c1` [Compound 227, 1-[2-(difluoromethoxy)-4-methoxyphenyl]-N-(1H-pyrazol-3-yl)imidazo[1,5-d][1,2,4]triazin-4-amine], for which the half-inhibitory concentration (IC50) lay in the range of 10 to 100 nM.

Regarding `O[C@@H]1CCCC[C@H]1Nc1nnc(-c2ccc(C(F)(F)F)cc2OC(F)F)c2cccn12` [Compound 110, (1R,2R)-2-({1-[2-(difluoromethoxy)-4-(trifluoromethyl)phenyl]pyrrolo[1,2-d][1,2,4]triazin-4-yl}amino)cyclohexan-1-ol], the IC50 lay in the range of 1 to 10 nM.

`OC[C@H]1C[C@@H](Nc2nnc(-c3ccc(C(F)(F)F)cc3OC(F)(F)F)c3cncn23)C1` [Compound 255, [(1s,3s)-3-({1-[2-(trifluoromethoxy)-4-(trifluoromethyl)phenyl]imidazo[1,5-d][1,2,4]triazin-4-yl}amino)cyclobutyl]methanol]: the half-maximal inhibitory concentration (IC50) was in the range of 1 to 10 nM.

On to `COc1ccc(-c2nnc(NC(C)c3cccc(O)c3)n3cncc23)c(CC(F)(F)F)c1` (stereo not shown) [Compound 303, 3-[1-({1-[4-methoxy-2-(2,2,2-trifluoroethyl)phenyl]imidazo[1,5-d][1,2,4]triazin-4-yl}amino)ethyl]phenol], for which the 50% inhibitory concentration (IC50) was less than 1 nM.

`C[C@]1(O)C[C@@H](Nc2nnc(-c3ccc(C(F)(F)F)cc3C3CC3)c3cncn23)C1` [Compound 399, (1s,3s)-3-({1-[2-cyclopropyl-4-(trifluoromethyl)phenyl]imidazo[1,5-d][1,2,4]triazin-4-yl}amino)-1-methylcyclobutan-1-ol]: the half-inhibitory concentration (IC50) was 1 to 10 nM.

`O[C@@H]1CCCC[C@H]1Nc1nnc(-c2ccc(OC(F)F)cc2OC(F)(F)F)c2cccn12` [Compound 168, (1R,2R)-2-({1-[4-(difluoromethoxy)-2-(trifluoromethoxy)phenyl]pyrrolo[1,2-d][1,2,4]triazin-4-yl}amino)cyclohexan-1-ol]: the IC50 was in the range of 1 to 10 nM.

For `CC(Nc1nnc(-c2ccc(C(F)(F)F)cc2CC(F)(F)F)c2cccn12)c1cccc(O)c1` (stereo not shown) [Compound 96, 3-[1-({1-[2-(2,2,2-trifluoroethyl)-4-(trifluoromethyl)phenyl]pyrrolo[1,2-d][1,2,4]triazin-4-yl}amino)ethyl]phenol], the 50% inhibitory concentration (IC50) fell in the range of 1 to 10 nM.

Turning to `CCN1CCC[C@@H](Nc2nnc(-c3ccc(SC)cc3OC(F)(F)F)c3cc(C)nn23)C1` [Compound 366, N-[(3R)-1-ethylpiperidin-3-yl]-2-methyl-4-[4-(methylsulfanyl)-2-(trifluoromethoxy)phenyl]pyrazolo[1,5-d][1,2,4]triazin-7-amine], the IC50 is 1 to 10 nM.

On to `CCN1C[C@H](F)C[C@@H](Nc2nnc(-c3ccc(Br)cc3C(F)(F)F)c3cncn23)C1` [Compound 205, 1-[4-bromo-2-(trifluoromethyl)phenyl]-N-[(3R,5R)-1-ethyl-5-fluoropiperidin-3-yl]imidazo[1,5-d][1,2,4]triazin-4-amine], for which the IC50 fell in the range of 10 to 100 nM.

With `CN1CCC[C@@H](Nc2nnc(-c3ccc(OC(F)F)cc3OC(F)(F)F)c3cncn23)C1` [Compound 295, 1-[4-(difluoromethoxy)-2-(trifluoromethoxy)phenyl]-N-[(3R)-1-methylpiperidin-3-yl]imidazo[1,5-d][1,2,4]triazin-4-amine], the half-maximal inhibitory concentration (IC50) is less than 1 nM.

In the case of `C[C@]1(O)C[C@@H](Nc2nnc(-c3ccc(C(F)(F)F)cc3OC(F)(F)F)c3cncn23)C1` [Compound 241, (1s,3s)-1-methyl-3-({1-[2-(trifluoromethoxy)-4-(trifluoromethyl)phenyl]imidazo[1,5-d][1,2,4]triazin-4-yl}amino)cyclobutan-1-ol], the IC50 was less than 1 nM.

In the case of `FC(F)(F)Cc1cc(C(F)(F)F)ccc1-c1nnc(Nc2cc[nH]n2)n2cncc12` [Compound 267, N-(1H-pyrazol-3-yl)-1-[2-(2,2,2-trifluoroethyl)-4-(trifluoromethyl)phenyl]imidazo[1,5-d][1,2,4]triazin-4-amine], the IC50 fell in the range of 1 to 10 nM.

Turning to `CN1CC[C@@H](O)[C@@H](Nc2nnc(-c3ccc(C(F)(F)F)cc3CC(F)(F)F)c3cncn23)C1` [Compound 289, (3S,4R)-1-methyl-3-({1-[2-(2,2,2-trifluoroethyl)-4-(trifluoromethyl)phenyl]imidazo[1,5-d][1,2,4]triazin-4-yl}amino)piperidin-4-ol], the IC50 was in the range of 1 to 10 nM.

For `CCN1CCC[C@@H](Nc2nnc(-c3ccc(OC)cc3Cl)c3cc(C)nn23)C1` [Compound 374, 4-(2-chloro-4-methoxyphenyl)-N-[(3R)-1-ethylpiperidin-3-yl]-2-methylpyrazolo[1,5-d][1,2,4]triazin-7-amine], the IC50 was 1 to 10 nM.

With `COc1ccc(-c2nnc(N[C@H]3C[C@@](C)(O)C3)n3ccc(F)c23)c(C(F)(F)F)c1` [Compound 130, (1s,3s)-3-({8-fluoro-1-[4-methoxy-2-(trifluoromethyl)phenyl]pyrrolo[1,2-d][1,2,4]triazin-4-yl}amino)-1-methylcyclobutan-1-ol], the concentration for half-maximal inhibition (IC50) lay within 1 to 10 nM.

Take `OCCN1CCC[C@@H](Nc2nnc(-c3ccc(C(F)(F)F)cc3OCF)c3cccn23)C1` [Compound 173, 2-[(3R)-3-({1-[2-(fluoromethoxy)-4-(trifluoromethyl)phenyl]pyrrolo[1,2-d][1,2,4]triazin-4-yl}amino)piperidin-1-yl]ethan-1-ol]: the half-maximal inhibitory concentration (IC50) was less than 1 nM.

For `COc1ccc(-c2nnc(N[C@H]3C[C@@](C)(O)C3)n3cccc23)c(OC(F)(F)F)c1` [Compound 9, (1s,3s)-3-({1-[4-methoxy-2-(trifluoromethoxy)phenyl]pyrrolo[1,2-d][1,2,4]triazin-4-yl}amino)-1-methylcyclobutan-1-ol], the IC50 was in the range of 1 to 10 nM.

Take `Cc1ccc(-c2nnc(N[C@@H]3CCCN(C)C3)n3nc(C)cc23)c(C(F)F)c1` [Compound 364, 4-[2-(difluoromethyl)-4-methylphenyl]-2-methyl-N-[(3R)-1-methylpiperidin-3-yl]pyrazolo[1,5-d][1,2,4]triazin-7-amine]: the half-maximal inhibitory concentration (IC50) is 10 to 100 nM.
